Experimental data published in patent US5591741A, “Fungicidal spiroheterocyclic derivatives” (American Cyanamid Company, priority 1993, dated 1997).

Legend:
Phytophthora infestans = format: in vivo; conditions: tomato, direct protectant foliar spray
Botrytis cinerea = experiment: Direct protectant activity against broad bean grey mould (BCB); format: in vivo; conditions: direct protectant foliar spray, 600 ppm, 4 days
Outline: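 Broad bean plants (cv The Sutton, two leaf pairs) sprayed on upper leaf surfaces at 600 ppm, then inoculated 24 h later with 10^6 conidia/ml. Kept 4 days at 22 °C, high humidity; disease control rated from % leaf area with lesions against untreated or diluent controls.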

Plasmopara viticola = experiment: Antisporulant activity against vine downy mildew (PVA); format: in vivo; conditions: vine leaves, antisporulant foliar spray, 600 ppm, 750 l/ha
Outline: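 Cabernet Sauvignon vines (~8 cm) inoculated on lower leaf surfaces with 5×10^4 zoosporangia/ml, held 24 h at 21° C high humidity then 24 h glasshouse. Infected leaves sprayed underside with 600 ppm compound in 1:1 water/acetone, 0.04% Tween 20, 750 l/ha; 96 h glasshouse, 24 h humidity. Sporulating leaf area rated versus control.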

Leptosphaeria nodorum = experiment: Activity against wheat leafspot (LN); format: in vivo; conditions: direct therapeutic foliar spray, 600 ppm, 6-8 days
Outline: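 Wheat cv Norman at single-leaf stage spray-inoculated with 1.5×10^6 conidia/ml, held 24 h at high humidity, then sprayed therapeutically with test compound at 600 ppm. Kept 6-8 days at 22° C, 70% humidity; lesion density per leaf rated against untreated or diluent-sprayed controls.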

Venturia inaequalis = experiment: Activity against apple scab in-vitro (VII); format: cell-based; conditions: 10 ppm, 10 days, 20° C., mycelial growth
Outline: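 Compound in acetone was tested at 10 ppm final in half-strength Potato Dextrose Broth inoculated with V. inaequalis mycelial fragments and spores at 5×10^4 propagules/ml. After 10 days at 20° C, mycelial growth was rated against untreated or diluent controls.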

[1] = system: Erysiphe graminis f.sp. hordei; experiment: Activity against barley powdery mildew, direct therapeutic (EGT); format: in vivo; conditions: direct therapeutic foliar spray, 600 ppm, up to 7 days
Outline: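 Barley seedlings (cv. Golden Promise, single-leaf stage) were dusted with mildew conidia one day before a therapeutic foliar spray of 600 ppm compound. Plants were kept at 18 °C and 40% humidity for up to 7 days, and sporulating leaf area was rated against untreated or diluent-sprayed controls.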

Rhizoctonia solani = experiment: Activity against Rhizoctonia in-vitro (RSI); format: cell-based; conditions: 10 ppm, 10 days, 20° C., mycelial growth
Outline: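 R. solani mycelial fragments (5×10^4/ml) in half-strength Potato Dextrose Broth with compound added from acetone to 10 ppm final. Mycelial growth assessed after 10 days at 20° C, rated against untreated or diluent control.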

Pyricularia oryzae = format: in vivo; conditions: rice seedlings, direct therapeutic foliar spray, 600 ppm, 4-5 days
[2] = system: Erysiphe graminis f.sp. hordei; experiment: Direct protectant activity against barley powdery mildew (EGP); format: in vivo; conditions: direct protectant foliar spray, 8 days
Outline: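 Barley seedlings (cv Golden Promise, single-leaf stage) were foliar-sprayed, held 24 h at 18 °C/40% RH, then dusted with mildew conidia. After 8 days at 18 °C/40% RH, sporulating leaf area was scored as a rating against untreated or diluent-sprayed controls.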

Alternaria solani = experiment: Activity against tomato early blight (AS); format: in vivo; conditions: Table VI; tomato seedlings, contact prophylactic foliar spray, 4 days
Outline: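 Foliar contact prophylactic spray on tomato seedlings (cv Outdoor Girl, second true leaf expanded) in acetone/water 50:50 with 0.04% Tween 20; 24 h at 20° C, 40% R.H., then inoculation with 10^4 spores/ml A. solani conidia. Kept moist at 21° C; lesion cover rated 4 days post-inoculation against untreated or diluent-sprayed controls.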

[3] = system: Pseudocercosporella herpotrichoides; experiment: Activity against wheat eyespot in-vitro (PHI); format: cell-based; conditions: 10 ppm, 10 days, 20° C., mycelial growth
Outline: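 P. herpotrichoides mycelial fragments (5×10^4/ml) grown in half-strength PDB with compound at 10 ppm final, added from acetone. Incubated 10 days at 20 °C; mycelial growth rated against untreated or diluent controls.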

SMILES | disease control rating PIP (Phytophthora infestans) | disease control rating BCB (Botrytis cinerea) | disease control rating PVA (Plasmopara viticola) | disease control rating LN (Leptosphaeria nodorum) | disease control rating VII (Venturia inaequalis) | disease control rating EGT [1] | disease control rating RSI (Rhizoctonia solani) | disease control rating PO (Pyricularia oryzae) | disease control rating EGP [2] | disease control rating AS (Alternaria solani) | disease control rating PHI [3]
CCCCCCNC1COC2(CCC(C(C)(C)C)CC2)C1 (stereo not shown) [Compound 41] | 0 (less than 50% disease control) | 0 (less than 50% disease control) | 0 (less than 50% disease control) | 1 (about 50-80% disease control) | 0 (less than 50% disease control) | 2 (greater than 80% disease control) | 0 (less than 50% disease control) | 0 (less than 50% disease control) | 2 (greater than 80% disease control) | 0 (less than 50% disease control) | 1 (about 50-80% disease control)
CCCCCCCCCCNC1COC2(CCC(C(C)(C)C)CC2)C1 (stereo not shown) [Compound 42] | 0 (less than 50% disease control) | 0 (less than 50% disease control) | 0 (less than 50% disease control) | 0 (less than 50% disease control) | 2 (greater than 80% disease control) | 2 (greater than 80% disease control) | 0 (less than 50% disease control) | 0 (less than 50% disease control) | 2 (greater than 80% disease control) | 0 (less than 50% disease control) | 1 (about 50-80% disease control)
CCCCCCCCCCCCNC1COC2(CCC(C(C)(C)C)CC2)C1 (stereo not shown) [Compound 43] | 0 (less than 50% disease control) | 0 (less than 50% disease control) | 0 (less than 50% disease control) | 2 (greater than 80% disease control) | 2 (greater than 80% disease control) | 2 (greater than 80% disease control) | 0 (less than 50% disease control) | 0 (less than 50% disease control) | 2 (greater than 80% disease control) | 0 (less than 50% disease control) | 0 (less than 50% disease control)
CCCCCCCCCCCCCCNC1COC2(CCC(C(C)(C)C)CC2)C1 (stereo not shown) [Compound 44] | 0 (less than 50% disease control) | 0 (less than 50% disease control) | 0 (less than 50% disease control) | 0 (less than 50% disease control) | 0 (less than 50% disease control) | 2 (greater than 80% disease control) | 0 (less than 50% disease control) | 0 (less than 50% disease control) | 2 (greater than 80% disease control) | 0 (less than 50% disease control) | 0 (less than 50% disease control)
CCCCCCCCCCCCCCCCNC1COC2(CCC(C(C)(C)C)CC2)C1 (stereo not shown) [Compound 45] | 0 (less than 50% disease control) | 0 (less than 50% disease control) | 0 (less than 50% disease control) | 0 (less than 50% disease control) | 0 (less than 50% disease control) | 2 (greater than 80% disease control) | 0 (less than 50% disease control) | 0 (less than 50% disease control) | 2 (greater than 80% disease control) | 0 (less than 50% disease control) | 0 (less than 50% disease control)
